Experimental data published in ChEMBL document CHEMBL1201862, “PubChem BioAssay data set” (2004).
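Five concentrations, 48 hours, 96-well plates. At the GI50, growth is halved.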 Active and inactive are the calls of the source. Rule as the data show it: active = GI50 up to about 1.1 µM and inactive = higher.

Tests used:
Assay in all cases: NCI tumour cell line growth inhibition, 48 h
[1] = tested on: A498
[2] = tested on: CCRF-CEM
[3] = tested on: EKVX
[4] = tested on: HCT-15
[5] = tested on: HOP-62
[6] = tested on: HOP-92
[7] = tested on: LOX IMVI
[8] = tested on: MOLT-4
[9] = tested on: NCI-H23
[10] = tested on: OVCAR-3
[11] = tested on: OVCAR-5
[12] = tested on: SF-295
[13] = tested on: SF-539
[14] = tested on: SK-MEL-28
[15] = tested on: SK-MEL-5
[16] = tested on: SW-620
[17] = tested on: UACC-257
[18] = tested on: HCT-116
[19] = tested on: KM12

Measured: GI50

Cc1nc2ccccn2c1/N=N/c1ccc(C(=O)NN)cc1
inactive: [1] 27.7 µM | [2] 4.59 µM | [3] 36.5 µM | [5] 38.3 µM | [6] 46.5 µM | [7] 26.3 µM | [8] 5.02 µM | [9] 28.9 µM | [10] 45 µM | [11] 36.1 µM | [12] 43.2 µM | [13] 77.3 µM | [14] 80.9 µM | [15] 22.4 µM | [16] 49.3 µM | [17] 97.5 µM
54.2 µM: [4]

C[C@]12CCC(=O)C(OC(=O)c3ccc([N+](=O)[O-])cc3)=C1CCC2=O
inactive: [1] > 100 µM | [2] > 100 µM | [3] > 100 µM | [18] > 100 µM | [5] > 100 µM | [6] > 100 µM | [19] > 100 µM | [7] > 100 µM | [8] > 100 µM | [10] > 100 µM | [11] > 100 µM | [12] > 100 µM | [13] > 100 µM | [14] > 100 µM | [15] > 100 µM | [16] > 100 µM | [17] > 100 µM
> 100 µM: [4]

COc1ccccc1-c1c(C#N)c(N)[nH]c(=S)c1C#N
inactive: [1] 86.1 µM | [3] 43 µM | [18] 41.2 µM | [5] > 100 µM | [6] 62.5 µM | [19] 62.8 µM | [7] 65.2 µM | [8] 11.5 µM | [9] > 100 µM | [10] 56.1 µM | [11] > 100 µM | [12] 52.8 µM | [13] > 100 µM | [14] 71.6 µM | [15] 32.1 µM | [16] 27.4 µM | [17] > 100 µM
> 100 µM: [4]

NC(=O)C(=O)Cc1nc2ccccc2s1
inactive: [1] > 100 µM | [2] > 100 µM | [3] > 100 µM | [18] > 100 µM | [5] > 100 µM | [6] > 100 µM | [19] > 100 µM | [7] > 100 µM | [8] > 100 µM | [9] > 100 µM | [10] > 100 µM | [11] > 100 µM | [12] > 100 µM | [13] > 100 µM | [14] > 100 µM | [16] > 100 µM | [17] > 100 µM
> 100 µM: [4]

CC(C)(C)c1ccnc(/N=C2\N/C(=N\c3cc(C(C)(C)C)ccn3)c3ccccc32)c1
24.3 µM: [4]
inactive: [1] 19.9 µM | [2] 59.4 µM | [3] 57.9 µM | [18] 14.6 µM | [5] 31.6 µM | [6] 22.6 µM | [19] 41.8 µM | [7] 35.9 µM | [8] 7.14 µM | [9] 30.7 µM | [10] 17.8 µM | [11] > 100 µM | [12] 23.4 µM | [13] 67.1 µM | [14] 24.4 µM | [16] 42.7 µM | [17] 23 µM

CC1(C)C2CCC13CS(=O)(=O)N1O[C@]13C(=O)O2 (stereo partly specified)
> 100 µM: [4]
inactive: [1] > 100 µM | [3] > 100 µM | [18] > 100 µM | [5] > 100 µM | [6] > 100 µM | [19] > 100 µM | [7] > 100 µM | [8] > 100 µM | [9] > 100 µM | [10] > 100 µM | [11] > 100 µM | [12] > 100 µM | [13] > 100 µM | [14] > 100 µM | [16] > 100 µM | [17] > 100 µM
